# Like-named read-outs stand apart in the source and are kept apart here.
# Assays:
# [1] = system: Eμ-Myc lymphoma cells stably expressing human Bcl-w; experiment: Apoptosis induction in Eμ-Myc lymphoma cells; conditions: overexpression of Bcl-w, 24 h
# Text: (§2) The retroviral plasmids to express human Bcl-2 family members in murine Eμ-Myc lymphoma cells are MSCV-hMCL-1-GFP, MSCV-hBCL-2-GFP, MSCV-hBCL-XL-GFP, MSCV-hBFL-1/A1-GFP, and MSCV-hBCL-w-GFP. To produce viruses, constructs of interest were co-transfected into HEK293T cells with the plasmid encoding the packaging viruses (p-CL-AMPHO provided by Phillip Darcy from Peter MacCallum Cancer Center, Melbourne, Australia) using standard calcium phosphate transient transfection technique. The retroviruses were harvested, filtered and used to infect target cells following standard procedures.
# (§3) Samples were then centrifuged, washed twice with PBS and analyzed by flow cytometry in a BD LSRFortessa. FACSDiva software was used for data collection and FlowJo software for data analysis.
# [2] = system: DOHH2; experiment: Cell viability assay; assay type: cell-based; conditions: Homo sapiens, DOHH-2, 24 h; DOHH2 (NHL); read-out: AZD5991 24h GI50
# Experimental: (§4) Cells were plated at 3000 cells/well in 384-well white plates in corresponding cell growth media. […] Caspase-3/7 activation was subsequently determined using a Caspase-Glo 3/7 Reagent (Promega) and viability was assayed using the CellTiter-Glo Reagent (Promega) as described in manufacturer’s instructions. Dose–response curves for caspase-3/7 activation and viability were plotted and analyzed (including EC50 and GI50 determination) using GraphPad Prism.
# [3] = system: MV4-11 tumors; experiment: MV4-11 rat subcutaneous xenograft; assay type: in vivo
# Experimental: (§1) Female C.B.-17 SCID mice and female nude rats were purchased from Charles River Laboratories. […]. All xenograft studies were conducted at our Association for the Assessment and Accreditation of Laboratory Animal Care accredited facility in Waltham, MA in accordance with ethical regulations described in the guidelines established by the internal Institutional Animal Care and Use Committee. […]. In mice, drugs were dosed intravenously in a volume of 5 mL kg^-1 except for venetoclax that was dosed orally in a volume of 10 mL kg^-1. […]. Ten million MV4-11 cells were injected subcutaneously in the right flank of rats in a volume of 0.1 mL. Tumor volumes (measured by caliper), animal body weight, and tumor condition were recorded twice weekly for the duration of the study. The tumor volume was calculated using the formula: length (mm) × width (mm)^2/0.52. For efficacy studies, growth inhibition from the start of treatment was assessed by comparison of the differences in tumor volume between control and treated groups. Statistical significance was evaluated using non-parametric, unpaired, two-tailed t-test. […] For pharmacokinetic analysis, plasma samples were precipitated and diluted with acetonitrile containing internal standard and analyzed by LC–MS/MS versus a calibration curve of known concentrations.
# [4] = system: Sudhl10; experiment: Cell viability assay; assay type: cell-based; conditions: Homo sapiens, SU-DHL10, 24 h; Sudhl10 (NHL); read-out: AZD5991 24h GI50
# Experimental: as §4
# [5] = system: MM1S; experiment: Cell viability assay; assay type: cell-based; conditions: Homo sapiens, MM1.S, 24 h; MM1S (MM); read-out: AZD5991 24h GI50
# Experimental: as §4
# [6] = system: Ramos; experiment: Cell viability assay; assay type: cell-based; conditions: Homo sapiens, 24 h; Ramos (NHL); read-out: AZD5991 24h GI50
# Experimental: as §4
# [7] = system: Eμ-Myc lymphoma cells stably expressing human Bcl-2; experiment: Apoptosis induction in Eμ-Myc lymphoma cells; conditions: overexpression of Bcl-2, 24 h
# Text: as §2, §3
# [8] = system: NCI-H929 tumors; experiment: NCI-H929 subcutaneous xenograft efficacy; assay type: in vivo, mice; conditions: single i.v. dose 100 mg kg^−1
# Experimental: as §1
# [9] = system: RT4; experiment: Cell viability assay; assay type: cell-based; conditions: Homo sapiens, RT-4, 24 h; RT4 (Urology); read-out: AZD5991 24h GI50
# Experimental: as §4
# [10] = system: CMK; experiment: Caspase-3/7 activation assay; assay type: cell-based; conditions: Homo sapiens, 6 h
# Experimental: as §4
# [11] = system: DLD1; experiment: Cell viability assay; assay type: cell-based; conditions: Homo sapiens, DLD-1, 24 h; DLD1 (GI); read-out: AZD5991 24h GI50
# Experimental: as §4
# [12] = system: Karpas620; experiment: Cell viability assay; assay type: cell-based; conditions: Karpas-620, 24 h; Karpas620 (MM); read-out: AZD5991 24h GI50
# Experimental: as §4
# [13] = system: MINO; experiment: Cell viability assay; assay type: cell-based; conditions: Homo sapiens, 24 h; MINO (NHL); read-out: AZD5991 24h GI50
# Experimental: as §4
# [14] = system: HEL92.1.7; experiment: Cell viability assay; assay type: cell-based; conditions: Homo sapiens, HEL 92.1.7, 24 h; HEL92.1.7 (AML); read-out: AZD5991 24h GI50
# Experimental: as §4
# [15] = system: KG1; experiment: Cell viability assay; assay type: cell-based; conditions: Homo sapiens, KG-1, 24 h; KG1 (AML); read-out: AZD5991 24h GI50
# Experimental: as §4
# [16] = system: Karpas422; experiment: Cell viability assay; assay type: cell-based; conditions: Homo sapiens, KARPAS-422, 24 h; Karpas422 (NHL); read-out: AZD5991 24h GI50
# Experimental: as §4
# [17] = system: A253; experiment: Cell viability assay; assay type: cell-based; conditions: Homo sapiens, 24 h; A253 (Others); read-out: AZD5991 24h GI50
# Experimental: as §4
# [18] = system: MV411; experiment: Cell viability assay; assay type: cell-based; conditions: Homo sapiens, MV4-11, 24 h; MV411 (AML); read-out: AZD5991 24h GI50
# Experimental: as §4
# [19] = system: H2122; experiment: Cell viability assay; assay type: cell-based; conditions: Homo sapiens, NCI-H2122, 24 h; H2122 (Lung); read-out: AZD5991 24h GI50
# Experimental: as §4
# [20] = system: HCC1187; experiment: Cell viability assay; assay type: cell-based; conditions: Homo sapiens, 24 h; HCC1187 (Breast); read-out: AZD5991 24h GI50
# Experimental: as §4
# [21] = system: RCPIWM1; experiment: Cell viability assay; assay type: cell-based; conditions: 24 h; RCPIWM1 (NHL); read-out: AZD5991 24h GI50
# Experimental: as §4
# [22] = system: H322; experiment: Cell viability assay; assay type: cell-based; conditions: NCI-H322, 24 h; H322 (Lung); read-out: AZD5991 24h GI50
# Experimental: as §4
# [23] = system: MOLP8; experiment: Caspase-3/7 activation assay; assay type: cell-based; conditions: Homo sapiens
# Experimental: as §4
# [24] = system: Sudhl16; experiment: Cell viability assay; assay type: cell-based; conditions: Homo sapiens, SU-DHL-16, 24 h; Sudhl16 (NHL); read-out: AZD5991 24h GI50
# Experimental: as §4
# [25] = system: MUTZ3; experiment: Cell viability assay; assay type: cell-based; conditions: 24 h; MUTZ3 (AML); read-out: AZD5991 24h GI50
# Experimental: as §4
structure (smiles),measurement,setting,value
"Cc1c2c(nn1C)CSCc1cc(n(C)n1)CSc1cc(c3ccccc3c1)OCCCc1c(C(=O)O)n(C)c3c-2c(Cl)ccc13 (atropisomer, axis not shown; (Ra)) [(Ra)-7]",apoptosis-inducing activity,[1],blocked
same,GI50,[2],65 nM
same,"tolerability, body weight",[3]; 30 mg kg^−1 i.v.,no significant body weight loss
same,antitumor response,[3]; single i.v. dose 30 mg kg^−1,TR observed
same,GI50,[4],10 nM
same,GI50,[5],348 nM
same,GI50,[6],11 nM
same,apoptosis-inducing activity,[7],blocked
same,mice with complete tumor regression,[8],four out of four
same,GI50,[9],2400 nM
same,EC50,"[10]; read-out: 6h caspase EC50, CMK, single agent",> 333 nM
same,EC50,"[10]; read-out: AZD5991 6h EC50, CMK (AML), caspase 3/7 activation",> 30000 nM
same,GI50,[11],15100 nM
same,GI50,[12],87 nM
same,GI50,[13],149 nM
same,GI50,[14],1640 nM
same,GI50,[15],291 nM
same,GI50,[16],490 nM
same,GI50,[17],> 30000 nM
same,GI50,[18],13 nM
same,GI50,[19],18700 nM
same,GI50,[20],233 nM
same,GI50,[21],20 nM
same,GI50,[22],17400 nM
same,EC50,"[23]; MOLP-8, 6 h, read-out: AZD5991 6h EC50, MOLP8 (MM), caspase 3/7 activation",57 nM
same,EC50,"[23]; MOLP-8, MOLP-8 cells, 0% serum, read-out: caspase-inducing activity EC50",1 nM
same,EC50,"[23]; MOLP-8, MOLP-8 cells, 2% serum, read-out: caspase-inducing activity EC50",8 nM
same,EC50,"[23]; MOLP-8, caspase activation, Mcl-1-dependent cell line, read-out: MOLP-8, EC50",33 nM
same,EC50,"[23]; MOLP-8, mean of log transformed data, read-out: MOLP-8 caspase pEC50 (converted)",33.1 nM
same,GI50,[24],119 nM
same,GI50,[25],4 nM

# — publication PMC6297231 (Nature Communications, 2018)
